Like-named read-outs stand apart in the source and are kept apart here. Marks after values point to notes of the source that are not given here.
What was measured:
[1] = system: Preadipocytes (PromoCell); experiment: alamar blue cell viability assay (adipocytolytic potential), preadipocytes; type: cell-based; conditions: for Viability Preadipocytes (%): 48h incubation, vehicle = 100%; for IC50: viability, 48 hrs, read-out: IC50 [µM] Pre-ad ipocytes
Description: (§1) The following experimental setup was used for determination of adipocytolytic potential of test compounds with preadipocytes and mature adipocytes: • Preadipocytes (PromoCell) were seeded in Preadipocyte Growth Medium at 45000 cells/ cm^2 to allow attachment overnight. Cells were cultured at 37°C and 5% CO2 untill postconfluence. Differentiation was started with incubation of cells in Differentiation Medium for 7 days followed by incubation in Nutrition medium for 14 further days. After differentiation process, mature adipocytes were incubated with indicated concentration of indicated triterpenes.
(§2) 6 replicates of each test compound concentration were tested. Each plate included a negative control and a compound interference control (for all concentrations, duplicates).
(§3) Cell viability as surrogate for adipocytolytic potential of compounds were analysed by alamar blue assay. In brief, 20µl of a 0,1mg/ml Resazurin sodium salt (Sigma; R7017-1G) solution was added to each well 48 hrs after compound incubation. The cells were incubated for 90 min at 37°C and 5% CO2 and the resulting conversion of resazurin to resorufin was measured by a fluorescence plate reader at 590 nm. Vehicle controls were set as 100%. IC50-values were analysed using SigmaBlotV13.

[2] = system: in vitro matured adipocytes; experiment: alamar blue cell viability assay (adipocytolytic potential), mature adipocytes; type: cell-based; conditions: for Viability Adipocytes (%): 48h incubation, vehicle = 100%
Description: as §1, §2, §3

[3] = system: inguinal fat pad; experiment: fat histology analysis of injected inguinal fat pads (H&E); type: in vivo, Male Sprague-Dawley rats
Description: (§4) After shaving the skin the inguinal area, rats, were injected into the inguinal fat pads (3 injection sites per fat pad for every rat, 100ul/per site). For all groups, 6 rats were injected with sterile vehicle, or obeticholic acid on day 1, day 7 and day 14 in the right pad and left fat pad was intact. For the other 6 rats were injected with sterile vehicle obeticholic acid on day 1, day 7 and day 14 in the left pad and right pad was intact.
Inguinal fat embedded in paraffin were cross-sectioned (5 µm each). For each mouse, a serial section at intervals of 40 to 50 µm was made and one section was collected for every 10 sections. In total, five sections per animal were used for Hematoxylin and eosin (H&E) stain and adipocyte number and size analysis. Histologic examination was performed by well-trained pathologists in a double-blind fashion. Three factors were examined in each sample: the quantity of normal fat, fat necrosis and inflammatory activity. […]. H&E staining was used in evaluation of the inflammatory status.

[4] = system: inguinal fat pad; experiment: injection into inguinal fat pads of rats: fat pad weight, volume, fat content; type: in vivo, Male Sprague-Dawley rats; conditions: 3 sites 100 µl each, days 1, 7, 14, analysis day 35, mean ±SEM
Description: All work was done under sterile extractor hood/luminar airflow working environment. Final solution were filtered through sterile 0.22um Millipore PES membrane syringer filter unit. […].
To 0.4099g Na3PO4 water for injection was added to a final weight of 50 g.
For the highest (2%) concentration, 100 mg of obeticholic acid were added with 2.75 ml of above solution, 112,5 mg of glycerol and finally 2.038 ml of sterile water to make 5 ml solution. Lower concentrations were adjusted accordingly.
Male Sprague-Dawley rats (200-300g of body weight) were used for this study (Vital River Laboratories Animal Ltd., China) and were housed in a temperature (22 ± 3 °C) and humidity (55 ± 15 %) controlled AAALAC accredited facility. Animals were provided with food (Keaoxieli certified Rodent Diet) and sterile water ad libitum. The animals were on a 12-hour light/dark (6:00 am /6:00 pm) cycle and acclimated for 1 week prior to the study. Rats were housed in a plexiglas cage (3 rats per cage).
as §4
Isolated inguinal fat pad volume was measured using YLS - 7 b digit volume measuring instrument (Jinan YiYan Technology Development co., LTD, Shandong, P.R. China) according to manufacturer instructions.
Rats were euthanized and the abdomen was cut and opened. Inguinal fat pads were exposed and a photo was taken. Then inguinal fat pads were isolated, and a gross photo was taken again followed by weighting of the pad. Total fat lipids were extracted from the inguinal fat using a protocol adapted from Folch et al. Fresh fat tissue (1g) was homogenized in 20ml of a 2:1 chloroform-methanol solution. The homogenate was filtered using a fat-free filter paper and funneled into a pre-weighted 50-ml glass vial. Then the previous vial and funnel were washed with an additional 5ml of a 2:1 chloroform-methanol solution. Afterwards 2.5 ml of 0.9% NaCl was added. The lipids were separated by centrifugation at 1,800 g, 10°C for 5 min; the aqueous layer was discarded and the tube was flushed with nitrogen until the lipid pellet was dry. The tube containing the lipid pellet was reweighed, and total lipid extracted per gram of total tissue was calculated.
Results were expressed as mean ± SEM. Statistical analysis was performed using ANOVA on ranks, followed if significant by Mann-Whitney test. The difference was considered significant when p< 0.05.
. Herein, the values representmean ±SEM. *-P<0.05 vs control. Table 5 Effect of obeticholic acid on inguinal fat pad in rats.

[5] = system: adipocytes; experiment: Caspase-Glo 3/7 Assay, apoptosis induction in adipocytes; type: cell-based; conditions: vehicle basal apoptosis = 100%
Description: as §1
For analysing the potential of compounds to induce apoptosis the Caspase-Glo® 3/7 Assay was used (Promega) as recommended by the supplier. In brief, 100µl of Caspase Reagent was added to 100µl cell culture medium and cells were incubated at 37°C and 5% CO2 for 1 hr. Luminescence signal was measured with a SynergyH4 plate reader. Vehicle controls were used to define basal apoptosis as 100%. Table 1 Impact on viability of in vitro matured adipocytes after 48h incubation with indicated compound in increasing concentration

[6] = Adipocyte, viability, 48 hrs, read-out: IC50 [µM] Adipocytes
[7] = 48 h, read-out: Viability Preadipocytes (%)

`C[C@H](CCC(=O)O)[C@H]1CC[C@H]2[C@@H]3CC[C@@H]4C[C@H](O)CC[C@]4(C)[C@H]3C[C@H](O)[C@]12C` [Deoxycholic acid] was tested, and the “Viability Preadipocytes (%)” value ([1]; 10 µM) was 96.22%, the “Viability Preadipocytes (%)” value ([1]; 50 µM) was 95.61% and the “Viability Preadipocytes (%)” value ([1]; 100 µM) was 98.03%. The “Viability Preadipocytes (%)” value ([1]; 300 µM) was 26.08%, the “Viability Preadipocytes (%)” value ([1]; 600 µM) was 0.00% and the IC50 [1] was 232 µM. The “Viability Adipocytes (%)” value ([2]; 10 µM) was 106.98%, the “Viability Adipocytes (%)” value ([2]; 50 µM) was 95.61% and the “Viability Adipocytes (%)” value ([2]; 100 µM) was 94.30%. For the same molecule, the “Viability Adipocytes (%)” value ([2]; 300 µM) was 22.06%, the “Viability Adipocytes (%)” value ([2]; 600 µM) was 0.11% and the IC50 ([2]; Adipocyte, read-out: concentration required to achieve 50%-decrease in vitality of adipocytes) was 200 µM. It also gave an IC50 [2, 6] of 244 µM.
With `CC[C@H]1[C@@H](O)[C@@H]2[C@H](CC[C@]3(C)[C@@H]([C@H](C)CCC(=O)O)CC[C@@H]23)[C@@]2(C)CC[C@@H](O)C[C@@H]12` [Obeticholic acid, (3α,5β,6α,7α)-6-ethyl-3,7-dihydroxycholan-24-oic acid] the “inflammation (histology)” value ([3]; 0.5 % solution injected into inguinal fat pad) was “not”, the “fat necrosis as measured by histology” value ([3]; 0.5, 1 and 2 % solutions) was “not affected” and the “normal fat content as measured by histology” value ([3]; 0.5, 1 and 2 % solutions) was “not affected”. The “inflammation (histology)” value ([3]; 1 % solution injected into inguinal fat pad) was “not”, the “inflammation (histology)” value ([3]; 2 % solution injected into inguinal fat pad) was “increase in inflammation” and the “Inguinal fat pad fat content difference to contralateral (sham) pad (g) N=8” value (from here on “Inguinal fat pad fat content difference”) ([4]; 0.5 % solution) was -0.169±0.02* g. The “Inguinal fat pad weight difference to contralateral (sham) pad (g) N=12” value (“Inguinal fat pad weight difference” below) ([4]; 0.5 % solution) was -0.192±0.04* g, the “Inguinal fat pad fat content difference” value ([4]; 1 % solution) was -0.387±0.04* g and the “Inguinal fat pad weight difference” value ([4]; 1 % solution) was -0.352±0.03* g. The “Inguinal fat pad fat content difference” value ([4]; 2 % solution) was -0.523±0.05* g, the “Inguinal fat pad weight difference” value ([4]; 2 % solution) was -0.526±0.07* g and the viability at 10 µM [1, 7] was 93%. It also gave a viability at 50 µM [1, 7] of 83.1%, a viability at 100 µM [1, 7] of 21.4% and a viability at 300 µM [1, 7] of 0.41%. The IC50 [1] was 87.2 µM, the “Viability Adipocytes (%)” value ([2]; 100 µM) was 49.17% and the viability at 10 µM ([2]; Adipocyte, 48 h, read-out: Viability Adipocytes (%), 10 µM, 48h incubation, vehicle = 100%) was 101%. It also gave a viability at 50 µM ([2]; Adipocyte, 48 h, read-out: Viability Adipocytes (%), 50 µM, 48h incubation, vehicle = 100%) of 89.6%, a viability at 100 µM ([2]; Adipocyte, 48 h, read-out: Viability Adipocytes (%), 100 µM, 48h incubation, vehicle = 100%) of roughly 50% and a viability at 300 µM ([2]; Adipocyte, 48 h, read-out: Viability Adipocytes (%), 300 µM, 48h incubation, vehicle = 100%) of 0.29%. For the same molecule, the IC50 [2, 6] was 93.9 µM, the “Apoptosis Adipocytes (%)” value ([5]; 50 µM, 6 hrs) was 132.28% and the “Apoptosis Adipocytes (%)” value ([5]; 50 µM, 24 hrs) was 146.44%. The “Apoptosis Adipocytes (%)” value ([5]; 100 µM, 6 hrs) was 503.28%, the “Apoptosis Adipocytes (%)” value ([5]; 100 µM, 24 hrs) was 180.88% and the “Apoptosis Adipocytes (%)” value ([5]; 300 µM, 6 hrs) was 1164.30%. The “Apoptosis Adipocytes (%)” value ([5]; 300 µM, 24 hrs) was 779.64%.

Source: patent EP3124080A1, “SEMISYNTHETIC BILE ACIDS FOR INJECTION LIPOLYSIS” (Merz Pharma GmbH & Co. KGaA, priority 2015, dated 2017)
